Laboratory results published in US20250268938A1, “SMALL MOLECULE-REGULATED CELL SIGNALING EXPRESSION SYSTEM” (Outpace Bio, Inc., priority 2021, published 2025).

Assays:
Jurkat cells = experiment: Kill switch percent killing in Jurkat cells (flow cytometry); format: cell-based
Experimental: Kill switch-positive cells (le5) were incubated for 24-48 hours with inducer drug before staining and analysis for death. Conditions were normalized to contain about 50% transduction positive (+) cells by adding untransduced Jurkat or primary T cells in order to get accurate statistics on death.
Flow cytometry was performed on a Ze5 cytometer (Biorad). To determine expression of markers, between 1×10^5-2×10^5 total cells were transferred to a U-bottom 96 well culture dish (Corning). Cells were washed twice with Cell Staining Buffer (BioLegend), then stained with Zombie Violet (1:1000, BioLegend) and ROR1-FC for ROR1-specific CAR constructs (20 min at room temperature). Cells were washed twice in Cell Staining Buffer, then stained with Annexin V-PE (BD) in 1× Annexin V Binding Buffer (BD) for 15 min at room temperature. After staining, cells were washed once with Annexin V Binding Buffer, resuspended in AnneinV Binding Buffer and immediately analyzed.
(§1) Flow cytometry data was analyzed using FlowJo 10 (Tree Star). Percent killing was calculated by gating on live cells, then calculating 100*((percent GFP positive DMSO condition)−(percent GFP positive drug condition))/(percent GFP positive DMSO condition).
We first tested for drug-induced death of Jurkat cells by fusing NS3a and DNCR2 separately to the catalytic domain of caspase-9 (NCDC). The small molecule inducible homodimer FKBP-F36V (iCasp9), which is dimerized by AP1903 (rimiducid) and the inducible heterodimer FKBP/rapamycin/FRB dimer (rapaCasp9) were used as controls. Briefly, Jurkat cells expressing NCDC, iCasp9, or rapaCasp9 were exposed to danoprevir, rimiducid or rapamycin, respectively, for 24 hours and analyzed by flow cytometry with gating set to measure killing in the top about 10% of cells expressing the highest amount of the GFP kill switch transduction marker.
To evaluate the kill switch designs of FIG. 8A, constructs were expressed in Jurkat cells, treated with 500 nM danoprevir (DNCR2-casp-9) or 500 nM grazoprevir (GNCR1-casp-9) and cell death measured by percent killing as described herein above.
The miniaturized versions of DNCR2, D1 and D9, were fused to caspase-9 and co-expressed in Jurkat cells with homo-oligomerized NS3a scaffolds. We also evaluated a CAR construct that included an additional copy of NS3a (CAR-2×NS3a). The original DNCR2-casp-9 was used as a control. Jurkat cells expressing different DNCR2 variants fused to caspase-9 along with CAR-NS3a, CAR-NS3a-NS3a, or dimer-NS3a were treated with 500 nM danoprevir and cell death was measured by percent killing as described herein above.
(§2) We explored the ability of other human killing domains to induce cell death in Jurkat and primary human T cells. We fused FKBP-F36V to a panel of killing domains that included caspase-9 D330A, caspase-9, caspase-1, caspase-4, and the necroptosis-inducing protein RIPK3. Briefly, Jurkat and primary human CD4+/CD8+ T cells expressing FKBP(F36V)-fused killing domains were treated with 10 nM rimiducid and cell death was measured by percent killing as described herein above.

[1] = test system: primary human CD4+/CD8+ T cells; experiment: Kill switch percent killing in primary human T cells; format: cell-based; conditions: 10 nM rimiducid, range of transduction levels
Experimental: Pre-selected, cryopreserved primary human CD4 T cells from normal donors were obtained from Bloodworks (Seattle WA). Human T cells were cultured in OpTmizer medium (Thermo Fisher) supplemented with Immune Cell Serum Replacement (Thermo Fisher), 2 mM L-glutamine (Gibco), 2 mM Glutamax (Gibco), 200 IU/ml IL-2 (R&D systems), 120 IU/ml IL-7 (R&D systems), and 20 IU/ml IL-15 (R&D systems).
For lentiviral transduction, T cells were stimulated with a 1:100 dilution of T cell TransAct (Miltenyi) for 30 hours. Virus was then added to T cells for 18-24 hours. […]
Flow cytometry was performed on a Ze5 cytometer (Biorad). […] After staining, cells were washed once with Annexin V Binding Buffer, resuspended in AnneinV Binding Buffer and immediately analyzed.
as §1
as §2, with “We fused FKBP-F36V to a panel of killing domains that included caspase-9 D330A, caspase-9, caspase-1, caspase-4, and the necroptosis-inducing protein RIPK3.” left out

danoprevir/NS3a complex = conditions: cited from earlier work
[2] = test system: Jurkat CD3ζ-signaling reporter line; experiment: Drug-induced cell death (loss of EGFP transduction marker) in Jurkat CD3ζ-signaling reporter line; format: cell-based
Experimental: (§3) For IncuCyte analysis of CD3ζ-signaling tdTomato reporter line with CARs and DNCR2-casp-9 kill switch (with EGFP transduction maker), 5e4 CAR+ cells were plated per well in poly-D-Lys coated plate in which 5e4 Jeko1 cells were previously seeded. Drug (e.g., grazoprevir, danoprevir) was added to given final concentration and cells were imaged for tdTomato and EGFP signal at 20×, 800 msec exposure, 4 images/well, every 3 hours. Cells were removed from the Incucyte plate to a v-bottom plate for 2 washes in PBS at 48 hours when the drug condition was changed.
(§4) Coculture for flow analysis of the CAR/kill switch constructs was setup 24 hours before analysis. CAR-positive cells (le5 cells; part I and part II positive, i.e., ROR1+ and EGFRt+ (part II marker)) were mixed with le5 Jeko1 cells and drug. Cells were analyzed for ROR1, EGFRt ([…]), tdTomato, EGFP, and viability as described hereinbelow.
Percent killing was calculated by gating on live cells, then calculating 100*((percent GFP positive DMSO condition)−(percent GFP positive drug condition))/(percent GFP positive DMSO condition).
(§5) To evaluate the use of two drug inputs to control two different signaling outputs, we used a Jurkat cell CD3ζ-signaling reporter line expressing the red fluorescent protein tdTomato to track CAR signaling, and the loss of the transduction marker (EGFP) of the DNCR2-caspase-9 construct to track Jurkat cell death.
(§6) We tested the ability to switch between CAR signaling and induction of apoptosis over time in an IncuCyte assay. Briefly, the CD3ζ-signaling reporter line expressing the dual-function GNCR1-CAR/DNCR2-casp9 was mixed 1:1 with Jeko1 cells and treated with 500 nM grazoprevir or danoprevir, or DMSO. Over a period of 48 hours, CAR signaling was tracked by tdTomato intensity and drug-induced cell death (i.e., activation of the safety switch) was monitored by tracking the transduction marker EGFP intensity.
(§7) We then tested the ability to switch from induction of CAR signaling with grazoprevir to induction of apoptosis with danoprevir. Briefly, CAR signaling was activated by grazoprevir treatment at time zero. After 48 hours, the cells were washed and treated with danoprevir. CAR signaling (tdTomato intensity) and cell viability (EGFP intensity) were tracked over an additional 72-hour period.

[3] = test system: Jurkat CD3ζ-signaling reporter line; experiment: CAR signaling (tdTomato) in Jurkat CD3ζ-signaling reporter line; format: cell-based; conditions: for CAR signaling, tdTomato intensity, drug switch: grazoprevir at time zero, washed and danoprevir at 48 hours, tracked additional 72 hours
Experimental: as §3, §4, §5, §6, §7

[4] = test system: CD69 expression in CAR expressing Jurkat cells; experiment: Induction of CD69 expression in CAR expressing Jurkat cells co-cultured with Jeko1 cells (flow cytometry); format: cell-based; conditions: conventional single-chain ROR1-CAR Jurkat cells with Jeko1 cells; 500 nM danoprevir
Experimental: NS3a-based regulated CARs were evaluated using lentiviral transduction of T cells and flow cytometry analysis. The CARs evaluated are specific for the ROR1 antigen expressed on the target cell line Jeko1. The Jurkat and Jeko1 cell lines were obtained from American Type Culture Collection (Manassas, VA) and maintained in RPMI 1640 media with Glutamax (Gibco) containing 10% fetal calf serum (Gibco). For lentiviral transduction, Jurkat cells were incubated with lentivirus in complete media plus LentiBOOST at the manufacturers recommended concentration (Sirion Biotech). Eighteen hours after transfection, lentivirus and LentiBOOST were diluted by addition of 1 volume fresh media.
For flow analysis of induction of CD69 expression, Jurkat cells were mixed 1:1 with Jeko1 cells or Jeko1-ROR1-KO cells. Drug was added to a final concentration of 500 nM. Cultures were incubated with drug for 24 hours before flow analysis for surface markers.
Flow cytometry of CAR experiments was performed on a Ze5 cytometer (Biorad). […] Flow cytometry data was analyzed using FlowJo 10 (Tree Star).
The three NS3a-based regulated CARs described hereinabove with reference to FIG. 1B were evaluated in the Jurkat cell line. […] CD69 expression, a T cell activation marker, was detected by flow cytometry, gating on live CD3+/ROR1+ cells.

[5] = IncuCyte, over 48 hours, GNCR1-CAR/DNCR2-casp9 cells 1:1 with Jeko1, 500 nM drug

RIPK3: FKBP-F36V fused to the necroptosis-inducing protein RIPK3
percent killing, FKBP(F36V)-fused killing domains (Jurkat cells; Jurkat cells, 10 nM rimiducid, range of transduction levels): not able to induce cell death | percent killing, FKBP(F36V)-fused killing domains [1]: not able to induce cell death

DNCR2: danoprevir/NS3 complex reader polypeptide (SSDEEEARELIERAKEAAERAQEAAERTGDPRVRELARELKRLAQEAAEEVKRDPSSSD)
affinity for the danoprevir/NS3a complex (danoprevir/NS3a complex): high affinity

CC(C)(C)OC(=O)N[C@H]1CCCCC/C=C\[C@@H]2C[C@@]2(C(=O)NS(=O)(=O)C2CC2)NC(=O)[C@@H]2C[C@@H](OC(=O)N3Cc4cccc(F)c4C3)CN2C1=O [danoprevir, (2R,6S,12Z,13aS,14aR,16aS)-14a-[(Cyclopropylsulfonyl)carbamoyl]-6-({[(2-methyl-2-propanyl)oxy]carbonyl}amino)-5,16-dioxo-1,2,3,5,6,7,8,9,10,11,13a,14,14a,15,16,16a-hexadecahydrocyclopropa[e]pyrrolo[1,2-a][1,4]diazacyclopentadecin-2-yl 4-fluoro-1,3-dihydro-2H-isoindole-2-carboxylate]
effect on Jurkat cells expressing a conventional CAR with DNCR2-casp-9 ([2]; 500 nM drug): no effect | percent killing (safety-switch) ([2]; GNCR1-CAR/DNCR2-casp-9 system, 500 nM drug, loss of EGFP-positive population relative to DMSO): triggered | cell viability, EGFP intensity [2, 5]: decreased cell viability | cell viability, EGFP signal, drug switch ([2]; danoprevir added at 48 hours, with or without previous grazoprevir treatment): began to drop | CAR signaling, tdTomato intensity, drug switch [3]: declines | percent killing, two-chain direct dimerization design NCDC (Jurkat cells; NS3a-casp-9/DNCR2-casp-9 (NCDC), drug titration, 24 hours, top about 10% GFP-expressing Jurkat cells): modest killing

C=C[C@@H]1C[C@]1(NC(=O)[C@@H]1C[C@@H]2CN1C(=O)[C@H](C(C)(C)C)NC(=O)O[C@@H]1C[C@H]1CCCCCc1nc3ccc(OC)cc3nc1O2)C(=O)NS(=O)(=O)C1CC1.O [grazoprevir]
effect on Jurkat cells expressing a conventional CAR with DNCR2-casp-9 ([2]; 500 nM drug): no effect | CAR signaling, tdTomato intensity [3, 5]: only activated | CAR signaling, tdTomato gMFI ([3]; dual-function GNCR1-CAR/DNCR2-casp-9, 500 nM drug, flow cytometry): activated | CAR signaling, tdTomato intensity, drug switch [3]: increases

B1: Conventional CAR: conventional, single-chain ROR1-CAR (protein)
chain: CPPCPMFWVLVVVGGVLACYSLLVTVAFIIFWVKRGRKKLLYIFKQPFMRPVQTTQEEDGCSCRFPEEEEGGCELRVKFSRSADAPAYQQGQNQLYNELNLGRREEYDVLDKRRGRDPEMGGKPRRKNPQEGLYNELQKDKMAEAYSEIGMKGERRRGKGHDGLYQGLSTATKDTYDALHMQALPPR
CD69 expression, regulation in response to danoprevir [4]: no significant regulation
